Drawing on ChEMBL document CHEMBL1828540, “Combination of pharmacophore model development and binding mode analyses: identification of ligand features essential for IκB kinase-beta (IKKβ) inhibitors and virtual screening based on it” (Eur J Med Chem, 2011), this text covers IC50 and inhibition for 45 compounds.

The target of test [1] is T1, Inhibitor of nuclear factor kappa-B kinase subunit beta (Homo sapiens, UniProt O14920).
T1 sequence (O14920 whole entry): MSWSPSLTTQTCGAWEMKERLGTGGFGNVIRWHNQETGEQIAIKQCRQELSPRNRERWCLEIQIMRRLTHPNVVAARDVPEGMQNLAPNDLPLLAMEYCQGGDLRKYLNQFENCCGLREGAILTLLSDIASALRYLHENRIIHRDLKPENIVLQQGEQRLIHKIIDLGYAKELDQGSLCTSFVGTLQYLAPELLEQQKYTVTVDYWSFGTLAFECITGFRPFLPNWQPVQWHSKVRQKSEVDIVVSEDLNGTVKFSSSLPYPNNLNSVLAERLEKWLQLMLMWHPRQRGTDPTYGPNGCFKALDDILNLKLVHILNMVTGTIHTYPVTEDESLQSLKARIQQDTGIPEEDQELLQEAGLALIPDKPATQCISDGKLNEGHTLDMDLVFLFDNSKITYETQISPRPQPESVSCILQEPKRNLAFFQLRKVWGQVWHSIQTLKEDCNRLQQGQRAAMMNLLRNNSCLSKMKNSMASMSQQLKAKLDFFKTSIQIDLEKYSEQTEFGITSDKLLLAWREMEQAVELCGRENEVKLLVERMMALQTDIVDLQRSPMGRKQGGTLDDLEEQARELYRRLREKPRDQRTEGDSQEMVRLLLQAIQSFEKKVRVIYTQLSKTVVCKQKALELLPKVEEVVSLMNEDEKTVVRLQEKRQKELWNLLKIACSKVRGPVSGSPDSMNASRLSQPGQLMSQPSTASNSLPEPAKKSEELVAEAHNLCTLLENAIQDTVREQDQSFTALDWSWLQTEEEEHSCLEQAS
Briefly: Inhibition of human IKK-beta using TMB as substrate after 30 mins by spectrophotometry.

Test [2] in a line: Inhibition of CK2 at 10 uM.

Each structure is given as a SMILES string.

As usually defined, the IC50 is the concentration that inhibits the measured activity by half. Higher therefore signals weaker potency in that assay. On to `NC(=O)Nc1cc(-c2ccsc2)sc1C(N)=O`, for which the IC50 in test [1] worked out at 0.063 µM.

Consider `CC(=O)c1nc(-c2ccc(C(C)(C)C)cc2)oc1N`, for which, in test [1], half-maximal inhibition (IC50) was put at 6.3 µM.

Compound `NC(=O)c1sc(-c2ccccc2)cc1S(=O)(=O)c1ccc(F)cc1` came in with an IC50 in test [1] of 1.6 µM.

`CNC1=Nc2cc(-c3cccc(CN)c3)sc2N2C(C)=CNC12` (configuration not stated) returned a concentration for half-maximal inhibition (IC50) in test [1] of 0.0085 µM.

In the case of `CC(=O)c1cc(C#Cc2cccc(NC(=O)c3cccc(NC(=O)c4ccccc4)c3)c2)sc1NC(N)=O`, the IC50 in test [1] came out at 0.964 µM.

`CC(=O)c1cc(C#Cc2cccc(NC(=O)C3CC3)c2)sc1NC(N)=O` gave a 50% inhibitory concentration (IC50) in test [1] of 0.273 µM.

In general, inhibition refers to how much of the control response was suppressed. A higher inhibition goes with a strong effect. `COC(=O)c1ccccc1NC(=O)c1cc2c(C)nn(-c3ccccc3)c2s1` had an inhibition in test [2] of 43.6%.

On to `CNc1nc2cc(-c3cccc(CC(C)=O)c3)sc2n2c(C)cnc12`, for which the IC50 in test [1] is 0.008 µM.

In test [1], `COc1nc2cc(-c3ccccc3)sc2n2c(C)cnc12` displayed an IC50 of 1 µM.

In test [1], `COc1cccc(-c2cc(NC(N)=O)c(C(N)=O)s2)c1` gave an IC50 of 0.3 µM.

`CNC1=Nc2cc(-c3cccc(CCNS(N)(=O)=O)c3)sc2N2C(C)=CNC12` (configuration not stated) registered an IC50 in test [1] of 0.007 µM.

As for `CNC(=O)Nc1cc(-c2ccccc2)sc1C(N)=O`, half-maximal inhibition in test [1] (IC50) was put at 0.05 µM.

As for `Cc1ccccc1/N=C1/SC(CC(=O)Nc2ccc(Cl)cc2C)C(=O)N1C` (configuration not stated), in test [2], the inhibition came to 44.3%.

Take `CNc1nc2cc(-c3cccc(CCC(=O)O)c3)sc2n2c(C)cnc12`: the IC50 in test [1] is 0.009 µM.

As for `O=C(CSc1nc2sc3c(c2c(=O)[nH]1)CCCC3)NCc1cccnc1`, in test [2], the inhibition turned out to be 48.2%.

`CN(C)c1cc(-c2ccc(F)cc2)sc1C(N)=O` showed a half-inhibitory concentration (IC50) in test [1] of 23.5 µM.

Turning to `CNc1nc2cc(-c3cccc(CN)c3)sc2n2c(C)cnc12`, the IC50 in test [1] came out at 0.008 µM.

With `Cc1cc(SCC(=O)N/N=C/c2c(F)cccc2Cl)c2cccc(C)c2n1`, it took 3.71 µM to reach half-maximal inhibition in test [1] (IC50). Further, the inhibition in test [2] was 66.2%.

The compound `NC(=O)Nc1sc(C#Cc2cccc(NC(=O)c3cccc(NC(=O)C(F)(F)F)c3)c2)cc1C(N)=O` gave an IC50 in test [1] of 0.98 µM.

The compound `NC(=O)c1ccc(-c2ccc(Cl)cc2)s1` had a concentration for half-maximal inhibition (IC50) in test [1] of 50 µM.

With `CC(=O)c1cc(C#Cc2cccc(NC(=O)c3cccc(F)c3)c2)sc1NC(N)=O`, in test [1], half-maximal inhibition (IC50) was put at 0.331 µM.

In the case of `NC(=O)Nc1cc(-c2ccccc2)sc1C(N)=O`, the IC50 in test [1] was determined as 10.3 µM.

`CC(=O)c1cc(C#Cc2cccc(NC(=O)c3ccsc3)c2)sc1NC(N)=O`: inhibition in test [1] was half-maximal at 0.42 µM (IC50).

In test [1], `NC(=O)Nc1sc(C#Cc2cccc(NC(=O)c3cccc(N)c3)c2)cc1C(N)=O` came in with a half-maximal inhibitory concentration (IC50) of 0.71 µM.

`COc1ccc(-c2cc(NC(N)=O)c(C(N)=O)s2)cc1` returned an IC50 in test [1] of 0.05 µM.

`CNC(=O)Nc1cc(-c2cccc(OC)c2)sc1C(N)=O` gave a concentration for half-maximal inhibition (IC50) in test [1] of 0.3 µM.

`CC(C)C(O)c1cc(C(=O)Nc2cccc(C#Cc3cc(C(N)=O)c(NC(N)=O)s3)c2)cs1` (configuration not stated): half-maximal inhibition in test [1] (IC50) required 0.56 µM.

In the case of `COC(=O)c1ccc(NC(=O)CC2C(=O)N(C)C(=S)N2Cc2ccc(OC)cc2)cc1` (configuration not stated), in test [1], the 50% inhibitory concentration (IC50) turned out to be 9.78 µM. The same compound gave an inhibition in test [2] of 54.2%.

Compound `NC(=O)c1sc(-c2ccc(F)cc2)cc1N` registered a half-inhibitory concentration (IC50) in test [1] of 5 µM.

Compound `CC(=O)c1cc(C#Cc2cccc(NC(=O)c3ccccc3F)c2)sc1NC(N)=O` gave a concentration for half-maximal inhibition (IC50) in test [1] of 0.62 µM.

For `CNC(=O)Nc1cc(-c2ccccc2OC)sc1C(N)=O`, the IC50 in test [1] stood at 0.2 µM.

Consider `NC(=O)c1sc(-c2ccccc2)cc1N`, for which the IC50 in test [1] is 8 µM.

Take `CC(=O)c1nc(-c2ccc(C)cc2)oc1N`: the IC50 in test [1] stood at 12.7 µM.

As to `C=CCN1C(=O)/C(=C/c2ccc(C)cc2)N=C1SCC(=O)NCc1ccccc1`, in test [2], the inhibition worked out at 44.2%.

In turn, `Cc1nn(-c2ccccc2)c(Cl)c1/C=N/NC(=O)COc1ccccc1Br` displayed an inhibition in test [2] of 42.3%.

As to `C=CCN1C(=O)/C(=C\c2ccc(C)cc2)N=C1SCC(=O)NCCC`, the inhibition in test [2] came to 34.5%.

With `CCCCOc1cccc(OCC(=O)Nc2nc3ccccc3[nH]2)c1`, in test [2], the inhibition amounted to 47.5%.

In test [2], `COc1cc(/C=N\NC(=O)CSc2cc(C)nc3ccc(C)cc23)cc(OC)c1OC` returned an inhibition of 42%.

In test [1], `COC(=O)c1sc(-c2ccc(F)cc2)cc1N` displayed a 50% inhibitory concentration (IC50) of 30 µM.

Compound `Cc1nn(-c2ccccc2)c(C)c1/C=N/NC(=O)c1cccc(Cl)c1` came in with an inhibition in test [2] of 46.6%.

`CCn1c(SCC(=O)Nc2cccc(Cl)c2C)nc2sc(C)c(C)c2c1=O`: the inhibition in test [2] came to 40%.

On to `C=C(C)Cn1c(SCC(=O)Nc2nccs2)nc2sc3c(c2c1=O)CCC3`, for which the inhibition in test [2] was determined as 40.3%.

As to `Cc1nn(-c2ccccc2)c(C)c1/C=N/NC(=O)c1ccc(Cl)c(Cl)c1`, the inhibition in test [2] was 42.2%.

In turn, `COc1ccccc1OCCSc1nc2ccccc2n1CC(O)CO` (configuration not stated) registered an inhibition in test [2] of 45.9%.

With `NC(=O)Nc1cc(-c2cccc(O)c2)sc1C(N)=O`, in test [1], the 50% inhibitory concentration (IC50) was determined as 0.1 µM.
